These results are taken from patent US20260207623A1, “USE OF ESTETROL IN HEPATICALLY IMPAIRED PATIENTS” (ESTETRA SRL, priority 2022, published 2026).

Structures are written as SMILES. “Also recorded” adds a separate entry of the source. Read-outs that look alike come from different tables or passages of the source.

For series [1] the following is noted: cited from earlier work.
Series [2] concerns post-menopausal women. Nature of the series: Example 3: severity of moderate to severe VMS. Format: in vivo, human. The settings on record: 15 mg and 20 mg vs placebo; weeks 4 and 12 (FIG. 12). Here is the method:
A further clinical study was designed to evaluate the effect of 15 or 20 mg estetrol (E4) monohydrate, or placebo on the severity and frequency of vasomotor symptoms (VMS) and the safety of E4 20 mg. The inclusion and exclusion criteria as described for Example 2 were maintained for the present Example (i.e. Example 3).
• 1. Mean change in weekly frequency of moderate to severe vasomotor symptoms (VMS) from Baseline to Week 4 (Efficacy Study Part) [Time Frame: Baseline and Week 4]: • The weekly frequency of moderate to severe VMS at Baseline and Week 4 is defined as the total number (sum) of all recorded moderate to severe VMS experienced during the last 7 consecutive days prior randomization for Baseline and at Week 4. Mean change=mean weekly frequency at Week 4-mean weekly frequency at Baseline. • 2. Mean change in weekly frequency of moderate to severe vasomotor symptoms (VMS) from Baseline to Week 12 (Efficacy Study Part) [Time Frame: Baseline and Week 12] • The weekly frequency of moderate to severe VMS at Baseline and Week 12 is defined as the total number (sum) of all recorded moderate to severe VMS experienced during the last 7 consecutive days prior randomization for Baseline and at Week 12. Mean change=mean weekly frequency at Week 12-mean weekly frequency at Baseline. • 3. […]

The test system of series [3] is Haemoglobin A1C. Nature of the series: Example 3: haemoglobin A1C, change from baseline to week 12. Format: in vivo, human.

As to `C[C@]12CC[C@@H]3c4ccc(O)cc4CC[C@H]3[C@@H]1[C@@H](O)[C@@H](O)[C@@H]2O` [E4, 1,3,5 (10)-estratrien-3,15alpha, 16alpha, 17beta-tetrol], the “dose up to which well tolerated and safe” value is recorded as “up to 100 mg” in series [1] (given as a single dose) and “up to 40 mg” in series [1] (given once daily for 28 days).

Turning to `C[C@]12CC[C@@H]3c4ccc(O)cc4CC[C@H]3[C@@H]1[C@@H](O)[C@@H](O)[C@@H]2O` [E4 monohydrate, estetrol monohydrate], the “severity of moderate to severe VMS” value in series [2] was “significantly decreased”. For the same compound, the “haemoglobin A1C levels” value in series [3] (15 mg and 20 mg, after 12 weeks, monohydrate) is recorded as “decreased; also recorded: reduced”. Further, the “Haemoglobin A1C, mean” value in series [3] (15 mg, Baseline) is on record as 5.625; in series [3] (15 mg, Week 12) it was 5.504; in series [3] (20 mg, Baseline), 5.605; in series [3] (20 mg, Week 12), 5.458.
